Results published in patent US10669272B2, “Substituted naphthyridinone compounds useful as T cell activators” (BRISTOL-MYERS SQUIBB COMPANY, priority 2018, dated 2020).
Where two headings read alike, the source gives them in different places. Each block holds one molecule with its values, some of them ahead of it.

What was measured:
human DGKα = molecular target: T1, human DGKα (Homo sapiens, UniProt P23743); test: DGKα LIPGLO assay (extruded liposome substrate), in vitro DGK inhibition; type: biochemical; conditions: read-out: DGKa LIPGLO IC50
T1 construct: TVMV protease cleavage site (C); Hexa-His (C); made in house; host or cells: Sf9 insect cells (baculovirus, Bac-to-Bac)

human DGKζ = molecular target: T2, human DGKζ (Homo sapiens, UniProt Q13574); test: DGKζ LIPGLO assay (extruded liposome substrate), in vitro DGK inhibition; type: biochemical; conditions: read-out: DGKz LIPGLO IC50
T2 construct: TVMV protease cleavage site (C); Hexa-His (C); made in house; host or cells: Sf9 insect cells (baculovirus, Bac-to-Bac)

naïve human CD8 T cells = test: Human CD8 T cells IFN-γ assay; type: cell-based; conditions: read-out: HuCD8 INFG Normalized EC50;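 note: Naïve human CD8 T cells stimulated with plate-bound anti-CD3 and soluble anti-CD28, IFN-γ in supernatant quantified by AlphaLISA and converted to pg/mL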
Human venous whole blood = test: Human whole blood IFN-γ assay; type: cell-based; conditions: human whole blood, read-out: INFg Whole Blood Normalized Agonist EC50;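 note: blood from healthy donors exposed to compound for 1 h before stimulation with anti-CD3 and anti-CD28 at 1 µg/mL each, IFN-γ quantified in supernatant by AlphaLISA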
[1] = Homo sapiens, T-cell, 20 h, normalized to 3 μM reference compound with anti-CD3 plus anti-CD28 as 100% activation
[2] = Homo sapiens, 24 h, normalized to 3 μM reference compound with anti-CD3 plus anti-CD28 as 100% activation
[3] = Homo sapiens, T-cell, 20 h, naïve human CD8 T cells, anti-CD3 plus anti-CD28, 3 μM reference compound = 100% activation
[4] = normalized to 3 μM reference compound with anti-CD3 plus anti-CD28 as 100% activation

T1 sequence (P23743 with tags, fused parts or gaps): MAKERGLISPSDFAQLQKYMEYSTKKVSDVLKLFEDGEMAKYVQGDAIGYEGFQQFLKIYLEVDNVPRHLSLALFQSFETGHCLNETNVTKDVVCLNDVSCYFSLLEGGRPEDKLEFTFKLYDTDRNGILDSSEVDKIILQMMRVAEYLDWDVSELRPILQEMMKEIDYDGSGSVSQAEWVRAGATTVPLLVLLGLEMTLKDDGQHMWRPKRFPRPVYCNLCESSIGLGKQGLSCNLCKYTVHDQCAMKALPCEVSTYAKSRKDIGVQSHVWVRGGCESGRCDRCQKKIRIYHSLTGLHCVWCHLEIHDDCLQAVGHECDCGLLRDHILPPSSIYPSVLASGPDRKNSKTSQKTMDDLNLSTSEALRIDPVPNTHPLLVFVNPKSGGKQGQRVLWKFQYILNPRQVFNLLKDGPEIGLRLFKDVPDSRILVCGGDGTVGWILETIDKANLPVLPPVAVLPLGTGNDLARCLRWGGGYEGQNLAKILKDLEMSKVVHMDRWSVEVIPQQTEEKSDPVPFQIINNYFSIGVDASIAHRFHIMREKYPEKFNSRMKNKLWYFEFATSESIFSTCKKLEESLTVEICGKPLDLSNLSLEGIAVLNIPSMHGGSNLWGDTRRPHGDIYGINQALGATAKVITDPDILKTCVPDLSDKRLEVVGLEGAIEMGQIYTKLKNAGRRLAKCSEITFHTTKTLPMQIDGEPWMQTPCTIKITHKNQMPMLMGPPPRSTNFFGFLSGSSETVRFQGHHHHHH
T2 sequence (Q13574 with tags, fused parts or gaps isoform Q13574-4): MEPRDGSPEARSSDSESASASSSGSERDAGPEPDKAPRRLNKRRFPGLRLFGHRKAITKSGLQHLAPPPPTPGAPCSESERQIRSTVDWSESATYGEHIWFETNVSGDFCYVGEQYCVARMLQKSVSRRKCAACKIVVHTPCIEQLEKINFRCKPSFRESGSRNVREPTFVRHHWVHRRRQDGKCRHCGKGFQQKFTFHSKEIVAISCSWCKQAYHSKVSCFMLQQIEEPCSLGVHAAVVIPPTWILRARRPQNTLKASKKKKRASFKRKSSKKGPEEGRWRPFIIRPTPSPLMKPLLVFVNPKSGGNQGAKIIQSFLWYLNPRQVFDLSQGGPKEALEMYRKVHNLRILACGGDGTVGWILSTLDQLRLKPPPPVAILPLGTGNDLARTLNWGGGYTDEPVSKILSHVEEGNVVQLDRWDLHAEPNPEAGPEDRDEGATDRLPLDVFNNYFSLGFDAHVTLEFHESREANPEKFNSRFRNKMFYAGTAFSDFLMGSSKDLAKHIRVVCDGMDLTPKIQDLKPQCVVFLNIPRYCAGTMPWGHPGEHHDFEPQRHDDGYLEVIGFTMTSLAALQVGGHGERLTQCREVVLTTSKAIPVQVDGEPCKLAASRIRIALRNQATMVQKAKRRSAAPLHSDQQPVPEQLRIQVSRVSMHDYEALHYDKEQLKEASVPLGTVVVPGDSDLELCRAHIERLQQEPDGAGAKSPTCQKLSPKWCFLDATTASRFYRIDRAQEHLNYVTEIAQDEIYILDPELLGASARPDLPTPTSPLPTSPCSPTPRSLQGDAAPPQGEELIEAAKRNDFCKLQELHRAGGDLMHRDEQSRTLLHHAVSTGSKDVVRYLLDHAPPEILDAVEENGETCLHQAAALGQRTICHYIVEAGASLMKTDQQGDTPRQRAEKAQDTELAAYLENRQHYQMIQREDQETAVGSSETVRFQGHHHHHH

Compound: C[C@@H]1CN(c2cc(=O)n(C)c3ccc(C#N)nc23)[C@@H](C)CN1C(c1ccc(F)cc1)c1cccc(F)c1 (single isomer, unassigned) [Example 249]
IC50 (human DGKα; liposome (LIPGLO) assay): 820 nM
IC50 (human DGKζ; liposome (LIPGLO) assay): 440 nM
EC50 (naïve human CD8 T cells; [1]): 32 nM
EC50 (Human venous whole blood; [2]): 690 nM

Compound: C[C@@H]1CN(c2cc(=O)n(C)c3ccc(C#N)nc23)[C@@H](C)CN1C(c1ccccc1)c1cccc(F)c1F (stereo partly drawn) [Example 276, 8-[(2S,5R)-4-[(2,3-difluorophenyl)(phenyl)methyl]-2,5-dimethylpiperazin-1-yl]-5-methyl-6-oxo-5,6-dihydro-1,5-naphthyridine-2-carbonitrile]
IC50 (human DGKα; liposome (LIPGLO) assay): 1200 nM
IC50 (human DGKζ; liposome (LIPGLO) assay): 1000 nM
EC50 (naïve human CD8 T cells; [1]): 180 nM
EC50 (Human venous whole blood; [2]): 2400 nM

Compound: C[C@@H]1CN(c2cc(=O)n(C)c3ccc(C#N)nc23)[C@@H](C)CN1Cc1cc(F)cc(F)c1 [Example 290, 8-[(2S,5R)-4-[(3,5-difluorophenyl)methyl]-2,5-dimethylpiperazin-1-yl]-5-methyl-6-oxo-5,6-dihydro-1,5-naphthyridine-2-carbonitrile]
IC50 (human DGKα; liposome (LIPGLO) assay): 1700 nM
IC50 (human DGKζ; liposome (LIPGLO) assay): 3500 nM
EC50 (naïve human CD8 T cells; [1]): 2000 nM
EC50 (Human venous whole blood; [2]): 7900 nM

Compound: Cc1ccc(C(c2ccc(F)cc2)N2CCN(c3c(C#N)c(=O)n(C)c4ccc(C#N)nc34)C[C@H]2C)nc1 (single isomer, unassigned) [Example 915]
IC50 (human DGKα; DGKα liposome (LIPGLO) assay): 740 nM
IC50 (human DGKζ; DGKζ liposome (LIPGLO) assay): 1300 nM
EC50 (naïve human CD8 T cells; [3]): 100 nM
EC50 (Human venous whole blood; anti-CD3 plus anti-CD28, 24 hours, 3 μM reference compound = 100% activation): 550 nM

Compound: C[C@@H]1CN(c2cc(=O)n(C)c3ccc(C#N)nc23)[C@@H](C)CN1C(c1ccccc1)c1ccc(F)cc1 (mixture of isomers) [Example 182, 8-[(2S,5R)-4-[(4-fluorophenyl)(phenyl)methyl]-2,5-dimethylpiperazin-1-yl]-5-methyl-6-oxo-5,6-dihydro-1,5-naphthyridine-2-carbonitrile]
IC50 (human DGKα; liposome (LIPGLO) assay): 870 nM
IC50 (human DGKζ; liposome (LIPGLO) assay): 1600 nM
EC50 (naïve human CD8 T cells; [1]): 30 nM
EC50 (Human venous whole blood; Homo sapiens, normalized to 3 μM reference compound with anti-CD3 plus anti-CD28 as 100% activation): 680 nM

Compound: Cc1ccc(C(c2ccc(C)cc2)N2C[C@H](C)N(c3c(C#N)c(=O)n(C)c4ccc(C#N)nc34)C[C@H]2C)cc1 [Example 806]
IC50 (human DGKα; DGKα liposome (LIPGLO) assay): 6300 nM
IC50 (human DGKζ; DGKζ liposome (LIPGLO) assay): 390 nM
EC50 (naïve human CD8 T cells; [3]): 18 nM
EC50 (Human venous whole blood; Homo sapiens, 24 h, anti-CD3 plus anti-CD28, 24 hours, 3 μM reference compound = 100% activation): 690 nM

Compound: C[C@@H]1CN(c2cc(=O)n(C)c3ccc(C#N)nc23)[C@@H](C)CN1C(c1cccc(Cl)c1)c1cccc(Cl)c1 [Example 257, 8-[(2S,5R)-4-[bis(3-chlorophenyl)methyl]-2,5-dimethylpiperazin-1-yl]-5-methyl-6-oxo-5,6-dihydro-1,5-naphthyridine-2-carbonitrile]
IC50 (human DGKα; liposome (LIPGLO) assay): 25000 nM
IC50 (human DGKζ; liposome (LIPGLO) assay): 830 nM
EC50 (naïve human CD8 T cells; [1]): 810 nM
EC50 (Human venous whole blood; [2]): 6200 nM

Compound: C[C@@H]1CN(c2c(F)c(=O)n(C)c3ccc(C#N)nc23)[C@@H](C)CN1C(c1ccc(F)cc1)c1ccc(C#N)cc1 (stereo partly drawn) [Example 328, 8-((2S,5R)-4-((4-cyanophenyl)(4-fluorophenyl)methyl)-2,5-dimethylpiperazin-1-yl)-7-fluoro-5-methyl-6-oxo-5,6-dihydro-1,5-naphthyridine-2-carbonitrile]
IC50 (human DGKα; liposome (LIPGLO) assay): 1200 nM
IC50 (human DGKζ; liposome (LIPGLO) assay): 2600 nM
EC50 (naïve human CD8 T cells; [4]): 6000 nM
EC50 (Human venous whole blood; [4]): 1000 nM

Compound: COc1ncccc1C(c1ccc(F)cc1)N1C[C@H](C)N(c2cc(=O)n(C)c3ccc(C#N)nc23)C[C@H]1C (single isomer, unassigned) [Example 209]
IC50 (human DGKα; liposome (LIPGLO) assay): 15000 nM
IC50 (human DGKζ; liposome (LIPGLO) assay): 320 nM
EC50 (naïve human CD8 T cells; [1]): 170 nM
EC50 (Human venous whole blood; [2]): 1500 nM

Compound: Cc1ccc(C(c2cccc(C)n2)N2C[C@H](C)N(c3cc(=O)n(C)c4ccc(C#N)nc34)C[C@H]2C)cc1 (stereo partly drawn) [Example 450, 8-((2S,5R)-2,5-dimethyl-4-((6-methylpyridin-2-yl)(p-tolyl)methyl)piperazin-1-yl)-5-methyl-6-oxo-5,6-dihydro-1,5-naphthyridine-2-carbonitrile]
IC50 (human DGKα; liposome (LIPGLO) assay): 2600 nM
IC50 (human DGKζ; liposome (LIPGLO) assay): 290 nM
EC50 (naïve human CD8 T cells; [1]): 70 nM
EC50 (Human venous whole blood; [2]): 280 nM

Compound: Cc1cccc(C(c2ccc(Cl)cc2)N2C[C@H](C)N(c3cc(=O)n(C)c4ccc(C#N)nc34)C[C@H]2C)n1 (single isomer, unassigned) [Example 443]
IC50 (human DGKα; liposome (LIPGLO) assay): 1400 nM
IC50 (human DGKζ; liposome (LIPGLO) assay): 110 nM
EC50 (naïve human CD8 T cells; [1]): 94 nM
EC50 (Human venous whole blood; [2]): 370 nM

Compound: C[C@@H]1CN(c2cc(=O)n(C)c3ccc(C#N)nc23)[C@@H](C)CN1C(c1ccccc1)c1c(F)cccc1F (single isomer, unassigned) [Example 272]
IC50 (human DGKα; liposome (LIPGLO) assay): 990 nM
IC50 (human DGKζ; liposome (LIPGLO) assay): 450 nM
EC50 (naïve human CD8 T cells; [1]): 79 nM
EC50 (Human venous whole blood; [4]): 2500 nM

Compound: C[C@@H]1CN(c2c(F)c(=O)n(C)c3ccc(C#N)nc23)[C@@H](C)CN1C(c1ccc(F)cc1)c1ccc(C#N)cc1 (stereo partly drawn) [Example 327, 8-((2S,5R)-4-((4-cyanophenyl)(4-fluorophenyl)methyl)-2,5-dimethylpiperazin-1-yl)-7-fluoro-5-methyl-6-oxo-5,6-dihydro-1,5-naphthyridine-2-carbonitrile]
IC50 (human DGKα; liposome (LIPGLO) assay): 3200 nM
IC50 (human DGKζ; liposome (LIPGLO) assay): 4900 nM
EC50 (naïve human CD8 T cells; [4]): 1200 nM
EC50 (Human venous whole blood; [2]): 700 nM

Compound: Cn1c(=O)cc(N2CCN(C(c3ccc(F)cc3)c3ccc(F)cc3)C(C#N)C2)c2nc(C#N)ccc21 (stereo not drawn) [Example 43, 8-(4-(bis(4-fluorophenyl)methyl)-3-cyanopiperazin-1-yl)-5-methyl-6-oxo-5,6-dihydro-1,5-naphthyridine-2-carbonitrile]
IC50 (human DGKα; liposome (LIPGLO) assay): 6200 nM
IC50 (human DGKζ; liposome (LIPGLO) assay): 3100 nM
EC50 (naïve human CD8 T cells; [1]): 87 nM
EC50 (Human venous whole blood; [2]): 1200 nM

Continued, in another order:

IC50 (human DGKα; liposome (LIPGLO) assay): 120 nM
IC50 (human DGKζ; liposome (LIPGLO) assay): 460 nM
Compound: C[C@@H]1CN(c2cc(=O)n(C)c3ccc(C#N)nc23)[C@@H](C)CN1Cc1c(F)cc(F)cc1F [Example 246, 8-[(2S,5R)-2,5-dimethyl-4-[(2,4,6-trifluorophenyl)methyl]piperazin-1-yl]-5-methyl-6-oxo-5,6-dihydro-1,5-naphthyridine-2-carbonitrile]
EC50 (naïve human CD8 T cells; [1]): 27 nM
EC50 (Human venous whole blood; [2]): 550 nM

IC50 (human DGKα; liposome (LIPGLO) assay): 390 nM
IC50 (human DGKζ; liposome (LIPGLO) assay): 1100 nM
Compound: C[C@@H]1CN(c2cc(=O)n(C)c3ccc(C#N)nc23)[C@@H](C)CN1Cc1c(F)cccc1Cl [Example 261, 8-[(2S,5R)-4-[(2-chloro-6-fluorophenyl)methyl]-2,5-dimethylpiperazin-1-yl]-5-methyl-6-oxo-5,6-dihydro-1,5-naphthyridine-2-carbonitrile]
EC50 (naïve human CD8 T cells; [1]): 230 nM
EC50 (Human venous whole blood; [2]): 880 nM

IC50 (human DGKα; liposome (LIPGLO) assay): 140 nM
IC50 (human DGKζ; liposome (LIPGLO) assay): 1800 nM
Compound: C[C@@H]1CN(c2cc(=O)n(C)c3ccc(C#N)nc23)[C@@H](C)CN1C(c1ccc(OC(F)(F)F)cc1)c1ccc(F)cn1 (mixture of isomers) [Example 462, 8-((2S,5R)-4-((5-fluoropyridin-2-yl)(4-(trifluoromethoxy)phenyl)methyl)-2,5-dimethylpiperazin-1-yl)-5-methyl-6-oxo-5,6-dihydro-1,5-naphthyridine-2-carbonitrile]
EC50 (naïve human CD8 T cells; [1]): 20 nM
EC50 (Human venous whole blood; [4]): 450 nM

IC50 (human DGKα; liposome (LIPGLO) assay): 200 nM
IC50 (human DGKζ; liposome (LIPGLO) assay): 680 nM
Compound: C[C@@H]1CN(c2cc(=O)n(C)c3ccc(C#N)nc23)[C@@H](C)CN1C(c1ccc(F)cc1)c1ccc(F)cn1 (single isomer, unassigned) [Example 194]
EC50 (naïve human CD8 T cells; [1]): 40 nM
EC50 (Human venous whole blood; [2]): 980 nM

IC50 (human DGKα; liposome (LIPGLO) assay): 270 nM
IC50 (human DGKζ; liposome (LIPGLO) assay): 2700 nM
Compound: C[C@@H]1CN(c2cc(=O)n(C)c3ccc(C#N)nc23)[C@@H](C)CN1C(c1ccc(F)c(F)c1)c1ccccn1 (single isomer, unassigned) [Example 375]
EC50 (naïve human CD8 T cells; [1]): 49 nM
EC50 (Human venous whole blood; [2]): 330 nM

IC50 (human DGKα; liposome (LIPGLO) assay): 200 nM
IC50 (human DGKζ; liposome (LIPGLO) assay): 550 nM
Compound: C[C@@H]1CN(c2cc(=O)n(C)c3ccc(C#N)nc23)[C@@H](C)CN1C(c1ccc(Cl)cc1)c1ncccc1F (single isomer, unassigned) [Example 189]
EC50 (naïve human CD8 T cells; [1]): 100 nM
EC50 (Human venous whole blood; [2]): 1200 nM

IC50 (human DGKα; liposome (LIPGLO) assay): 570 nM
IC50 (human DGKζ; liposome (LIPGLO) assay): 2500 nM
Compound: Cc1ccc(C(c2ccc(C#N)cc2)N2C[C@H](C)N(c3cc(=O)n(C)c4ccc(C#N)nc34)C[C@H]2C)nc1 (single isomer, unassigned) [Example 360]
EC50 (naïve human CD8 T cells; [1]): 130 nM
EC50 (Human venous whole blood; [4]): 310 nM
